From patent US5700804A, “Pharmaceutical compounds” (Xenova Limited, priority 1992, dated 1997)

Target: PAI-1 (Homo sapiens, UniProt P05121)
Test: PAI chromogenic substrate assay (first S2251 assay, tPA/plasminogen system)
Format: biochemical
Description: In this assay, a compound is incubated with PAI-1 prior to addition to the tPA assay system. Inhibition of PAI-1 results in the production of plasmin from plasminogen. In turn, plasmin cleaves the chromogenic substrate S2251 (Kabi Vitrum) producing pNA (p-nitroaniline) which is detected spectrophotometrically at 405 nm (K. Nilsson et al, Fibrinolysis (1987) 1, 163-168).
Compounds of formula (A) were tested in a PAI chromogenic substrate assay. In the first assay (K. Nilsson, Fibrinolysis (1987) 1, 163-168) each compound was incubated with PAI-1 prior to addition to the tPA assay system. […] In turn, the plasmin cleaved the chromogenic substrate S2251 (Kabi-Vitrum) producing pNA (p-nitroaniline) which was detected spectrophotometrically at 405 nm.

PAI-1, sequence (P05121 24-402): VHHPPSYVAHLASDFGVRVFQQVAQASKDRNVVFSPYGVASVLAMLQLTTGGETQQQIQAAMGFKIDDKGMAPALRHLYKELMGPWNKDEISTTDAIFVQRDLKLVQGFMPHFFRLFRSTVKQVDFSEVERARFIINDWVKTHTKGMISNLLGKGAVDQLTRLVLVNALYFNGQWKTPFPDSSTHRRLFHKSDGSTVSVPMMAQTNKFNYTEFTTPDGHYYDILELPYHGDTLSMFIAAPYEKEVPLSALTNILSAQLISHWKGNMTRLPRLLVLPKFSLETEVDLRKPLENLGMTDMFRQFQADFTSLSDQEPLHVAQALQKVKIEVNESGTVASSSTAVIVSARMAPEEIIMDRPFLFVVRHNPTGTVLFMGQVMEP

COc1ccc(/C=c2\[nH]c(=O)/c(=C/c3ccccc3)[nH]c2=O)cc1 [Compound 3, (3Z,6Z,)-6-benylidene-3-(4-methoxybenzylidene)-2,5-piperazinedione]
Inhibition of PAI-1 in the first S2251 chromogenic substrate assay (Concentration 6 μm): 14% | Inhibition of PAI-1 in the first S2251 chromogenic substrate assay (Concentration 12 μm): 40% | Inhibition of PAI-1 in the first S2251 chromogenic substrate assay (Concentration 25 μm): 53% | Inhibition of PAI-1 in the first S2251 chromogenic substrate assay (Concentration 50 μm): 74% | Inhibition of PAI-1 in the first S2251 chromogenic substrate assay (Concentration 100 μm): 86%

O=c1[nH]/c(=C\c2c(Cl)cccc2Cl)c(=O)[nH]/c1=C\c1ccccc1 [Compound 21, (3Z,6Z)-6-Benzylidene-3-(2,6-dichlorobenzylidene)-2,5-piperazinedione]
Inhibition of PAI-1 in the first S2251 chromogenic substrate assay (Concentration 6.25 μm): 0% | Inhibition of PAI-1 in the first S2251 chromogenic substrate assay (Concentration 12.5 μm): 0% | Inhibition of PAI-1 in the first S2251 chromogenic substrate assay (Concentration 25 μm): 2% | Inhibition of PAI-1 in the first S2251 chromogenic substrate assay (Concentration 50 μm): 35% | Inhibition of PAI-1 in the first S2251 chromogenic substrate assay (Concentration 100 μm): 79%

O=c1[nH]c(=Cc2ccccc2)c(=O)[nH]c1=Cc1ccccc1 [Compound 22, 3,6-Dibenzylidene-2,5-piperazinedione]
Inhibition of PAI-1 in the first S2251 chromogenic substrate assay (Concentration 6.25 μm): 0% | Inhibition of PAI-1 in the first S2251 chromogenic substrate assay (Concentration 12.5 μm): 0% | Inhibition of PAI-1 in the first S2251 chromogenic substrate assay (Concentration 25 μm): 1% | Inhibition of PAI-1 in the first S2251 chromogenic substrate assay (Concentration 50 μm): 2% | Inhibition of PAI-1 in the first S2251 chromogenic substrate assay (Concentration 100 μm): 61%

CC(=O)Oc1ccc(/C=c2\[nH]c(=O)/c(=C/c3ccccc3)[nH]c2=O)cc1 [Compound 23, (3Z,6Z)-3-(4-Acetoxybenzylidene)-6-benzylidene-2,5-piperazinedione]
Inhibition of PAI-1 in the first S2251 chromogenic substrate assay (Concentration 7.5 μm): 0% | Inhibition of PAI-1 in the first S2251 chromogenic substrate assay (Concentration 15 μm): 0% | Inhibition of PAI-1 in the first S2251 chromogenic substrate assay (Concentration 30 μm): 17% | Inhibition of PAI-1 in the first S2251 chromogenic substrate assay (Concentration 60 μm): 65%

O=c1[nH]/c(=C\c2cccc([N+](=O)[O-])c2)c(=O)[nH]/c1=C\c1ccccc1 [Compound 24, (3Z,6Z)-6-Benzylidene-3-(3-nitrobenzylidene)-2,5-piperazinedione]
Inhibition of PAI-1 in the first S2251 chromogenic substrate assay (Concentration 3.75 μm): 0% | Inhibition of PAI-1 in the first S2251 chromogenic substrate assay (Concentration 7.5 μm): 0% | Inhibition of PAI-1 in the first S2251 chromogenic substrate assay (Concentration 15 μm): 0% | Inhibition of PAI-1 in the first S2251 chromogenic substrate assay (Concentration 30 μm): 29% | Inhibition of PAI-1 in the first S2251 chromogenic substrate assay (Concentration 60 μm): 56%

CCOc1ccc(/C=c2\[nH]c(=O)/c(=C/c3ccccc3)[nH]c2=O)cc1 [Compound 25, (3Z,6Z)-6-Benzylidene-3-(4-ethoxybenzylidene)-2,5-piperazinedione]
Inhibition of PAI-1 in the first S2251 chromogenic substrate assay (Concentration 6.25 μm): 0% | Inhibition of PAI-1 in the first S2251 chromogenic substrate assay (Concentration 12.5 μm): 0% | Inhibition of PAI-1 in the first S2251 chromogenic substrate assay (Concentration 25 μm): 1% | Inhibition of PAI-1 in the first S2251 chromogenic substrate assay (Concentration 50 μm): 25% | Inhibition of PAI-1 in the first S2251 chromogenic substrate assay (Concentration 100 μm): 52%

COc1ccc(/C=c2\[nH]c(=O)/c(=C/c3ccc(NC(C)=O)cc3)[nH]c2=O)cc1 [Compound 26, (3Z,6Z)-3-(4-Acetamidobenzylidene)-6-(4-methoxybenzylidene)-2,5-piperazinedione]
Inhibition of PAI-1 in the first S2251 chromogenic substrate assay (Concentration 7.5 μm): 42% | Inhibition of PAI-1 in the first S2251 chromogenic substrate assay (Concentration 15 μm): 73% | Inhibition of PAI-1 in the first S2251 chromogenic substrate assay (Concentration 30 μm): 71% | Inhibition of PAI-1 in the first S2251 chromogenic substrate assay (Concentration 60 μm): 57%

COc1ccc(/C=c2\[nH]c(=O)/c(=C/c3ccc4ccccc4c3)[nH]c2=O)cc1 [Compound 27, (3Z,6Z)-3-(4-Methoxybenzylidene)-6-(2-naphthylmethylene)-2,5-piperazinedione]
Inhibition of PAI-1 in the first S2251 chromogenic substrate assay (Concentration 12.5 μm): 9% | Inhibition of PAI-1 in the first S2251 chromogenic substrate assay (Concentration 25 μm): 8% | Inhibition of PAI-1 in the first S2251 chromogenic substrate assay (Concentration 50 μm): 35% | Inhibition of PAI-1 in the first S2251 chromogenic substrate assay (Concentration 100 μm): 70%

COc1ccc(/C=c2\[nH]c(=O)/c(=C/c3ccccc3[N+](=O)[O-])[nH]c2=O)cc1 [Compound 28, (3Z,6Z)-6-(4-Methoxybenzylidene)-3-(2-nitrobenzylidene)-2,5-piperazinedione]
Inhibition of PAI-1 in the first S2251 chromogenic substrate assay (Concentration 6.25 μm): 0% | Inhibition of PAI-1 in the first S2251 chromogenic substrate assay (Concentration 12.5 μm): 1% | Inhibition of PAI-1 in the first S2251 chromogenic substrate assay (Concentration 25 μm): 45% | Inhibition of PAI-1 in the first S2251 chromogenic substrate assay (Concentration 50 μm): 74% | Inhibition of PAI-1 in the first S2251 chromogenic substrate assay (Concentration 100 μm): 71%

COc1ccc(/C=c2\[nH]c(=O)/c(=C/c3c(Cl)cccc3Cl)[nH]c2=O)cc1 [Compound 29, (3Z,6Z)-3-(2,6-Dichlorobenzylidene)-6-(4-methoxybenzylidene)-2,5-piperazinedione]
Inhibition of PAI-1 in the first S2251 chromogenic substrate assay (Concentration 6.25 μm): 0% | Inhibition of PAI-1 in the first S2251 chromogenic substrate assay (Concentration 12.5 μm): 1% | Inhibition of PAI-1 in the first S2251 chromogenic substrate assay (Concentration 25 μm): 34% | Inhibition of PAI-1 in the first S2251 chromogenic substrate assay (Concentration 50 μm): 76% | Inhibition of PAI-1 in the first S2251 chromogenic substrate assay (Concentration 100 μm): 80%

Nc1ccc(/C=c2\[nH]c(=O)/c(=C/c3ccccc3)[nH]c2=O)cc1 [Compound 30, (3Z,6Z)-3-(4-Aminobenzylidene)-6-benzylidene-2,5-piperazinedione]
Inhibition of PAI-1 in the first S2251 chromogenic substrate assay (Concentration 12.5 μm): 2% | Inhibition of PAI-1 in the first S2251 chromogenic substrate assay (Concentration 25 μm): 5% | Inhibition of PAI-1 in the first S2251 chromogenic substrate assay (Concentration 50 μm): 23% | Inhibition of PAI-1 in the first S2251 chromogenic substrate assay (Concentration 100 μm): 66%

CC(=O)Oc1cccc(/C=c2\[nH]c(=O)/c(=C/c3ccccc3)[nH]c2=O)c1 [Compound 31, (3Z,6Z)-3-(3-Acetoxybenzylidene)-6-benzylidene-2,5-piperazinedione]
Inhibition of PAI-1 in the first S2251 chromogenic substrate assay (Concentration 6.25 μm): 0% | Inhibition of PAI-1 in the first S2251 chromogenic substrate assay (Concentration 12.5 μm): 1% | Inhibition of PAI-1 in the first S2251 chromogenic substrate assay (Concentration 25 μm): 2% | Inhibition of PAI-1 in the first S2251 chromogenic substrate assay (Concentration 50 μm): 12% | Inhibition of PAI-1 in the first S2251 chromogenic substrate assay (Concentration 100 μm): 58%

CC(=O)Oc1ccccc1/C=c1\[nH]c(=O)/c(=C/c2ccccc2)[nH]c1=O [Compound 32, (3Z,6Z)-3-(2-Acetoxybenzylidene)-6-benzylidene-2,5-piperazinedione]
Inhibition of PAI-1 in the first S2251 chromogenic substrate assay (Concentration 6.25 μm): 0% | Inhibition of PAI-1 in the first S2251 chromogenic substrate assay (Concentration 12.5 μm): 1% | Inhibition of PAI-1 in the first S2251 chromogenic substrate assay (Concentration 25 μm): 3% | Inhibition of PAI-1 in the first S2251 chromogenic substrate assay (Concentration 50 μm): 36% | Inhibition of PAI-1 in the first S2251 chromogenic substrate assay (Concentration 100 μm): 87%

O=c1[nH]/c(=C\c2cccc(O)c2)c(=O)[nH]/c1=C\c1ccccc1 [Compound 33, (3Z,6Z)-6-Benzylidene-3-(3-hydroxybenzylidene)-2,5-piperazinedione]
Inhibition of PAI-1 in the first S2251 chromogenic substrate assay (Concentration 6.25 μm): 0% | Inhibition of PAI-1 in the first S2251 chromogenic substrate assay (Concentration 12.5 μm): 1% | Inhibition of PAI-1 in the first S2251 chromogenic substrate assay (Concentration 25 μm): 1% | Inhibition of PAI-1 in the first S2251 chromogenic substrate assay (Concentration 50 μm): 3% | Inhibition of PAI-1 in the first S2251 chromogenic substrate assay (Concentration 100 μm): 56%

CC(=O)Nc1ccc(/C=c2\[nH]c(=O)/c(=C/c3ccccc3)[nH]c2=O)cc1 [Compound 34, (3Z,6Z)-3-(4-Acetamidobenzylidene)-6-benzylidene-2,5-piperazinedione]
Inhibition of PAI-1 in the first S2251 chromogenic substrate assay (Concentration 7.5 μm): 24% | Inhibition of PAI-1 in the first S2251 chromogenic substrate assay (Concentration 15 μm): 76% | Inhibition of PAI-1 in the first S2251 chromogenic substrate assay (Concentration 30 μm): 77% | Inhibition of PAI-1 in the first S2251 chromogenic substrate assay (Concentration 60 μm): 72%

O=c1[nH]/c(=C\c2cccc([N+](=O)[O-])c2)c(=O)[nH]/c1=C\c1cccc([N+](=O)[O-])c1 [Compound 35, (3Z,6Z)-3,6-Di-(3-Nitrobenzylidene)-2,5-piperazinedione]
Inhibition of PAI-1 in the first S2251 chromogenic substrate assay (Concentration 25 μm): 2% | Inhibition of PAI-1 in the first S2251 chromogenic substrate assay (Concentration 50 μm): 28% | Inhibition of PAI-1 in the first S2251 chromogenic substrate assay (Concentration 100 μm): 52%

COc1ccc(/C=c2\[nH]c(=O)/c(=C/c3ccc(O)cc3)[nH]c2=O)cc1 [Compound 36, (3Z,6Z)-3-(4-Hydroxybenzylidene)-6-(4-methoxybenzylidene)-2,5-piperazinedione]
Inhibition of PAI-1 in the first S2251 chromogenic substrate assay (Concentration 25 μm): 1% | Inhibition of PAI-1 in the first S2251 chromogenic substrate assay (Concentration 50 μm): 6% | Inhibition of PAI-1 in the first S2251 chromogenic substrate assay (Concentration 100 μm): 71%
